# Data from patent US9206130B2, “Quinoline derivatives as AXL kinase inhibitors” (Max-Planck-Gesellschaft zur Förderung der Wissenschaften …, priority 2008, dated 2015).
# Columns and labels:
# [1] = molecular target: T1, wild type AXL (wtAXL) receptor tyrosine kinase (Homo sapiens, UniProt P30530); test: NIH-3T3-AXL cellular tyrosine kinase assay (inhibition of AXL phosphorylation); format: cell-based; conditions: AXL phosphorylation in NIH-3T3-AXL (clone 22) cells, serum-depleted, 2 h with compound, immunoprecipitation / anti-phosphotyrosine blot
# T1 construct: WtAXL cDNA was cloned into vector pLXSN(ESK) and transfected into Phoenix E packaging cells; expressed in transfected cells; host or cells: NIH3T3 N7 mouse fibroblasts, retrovirally infected (clone 22)
# T1 sequence (P30530 26-894): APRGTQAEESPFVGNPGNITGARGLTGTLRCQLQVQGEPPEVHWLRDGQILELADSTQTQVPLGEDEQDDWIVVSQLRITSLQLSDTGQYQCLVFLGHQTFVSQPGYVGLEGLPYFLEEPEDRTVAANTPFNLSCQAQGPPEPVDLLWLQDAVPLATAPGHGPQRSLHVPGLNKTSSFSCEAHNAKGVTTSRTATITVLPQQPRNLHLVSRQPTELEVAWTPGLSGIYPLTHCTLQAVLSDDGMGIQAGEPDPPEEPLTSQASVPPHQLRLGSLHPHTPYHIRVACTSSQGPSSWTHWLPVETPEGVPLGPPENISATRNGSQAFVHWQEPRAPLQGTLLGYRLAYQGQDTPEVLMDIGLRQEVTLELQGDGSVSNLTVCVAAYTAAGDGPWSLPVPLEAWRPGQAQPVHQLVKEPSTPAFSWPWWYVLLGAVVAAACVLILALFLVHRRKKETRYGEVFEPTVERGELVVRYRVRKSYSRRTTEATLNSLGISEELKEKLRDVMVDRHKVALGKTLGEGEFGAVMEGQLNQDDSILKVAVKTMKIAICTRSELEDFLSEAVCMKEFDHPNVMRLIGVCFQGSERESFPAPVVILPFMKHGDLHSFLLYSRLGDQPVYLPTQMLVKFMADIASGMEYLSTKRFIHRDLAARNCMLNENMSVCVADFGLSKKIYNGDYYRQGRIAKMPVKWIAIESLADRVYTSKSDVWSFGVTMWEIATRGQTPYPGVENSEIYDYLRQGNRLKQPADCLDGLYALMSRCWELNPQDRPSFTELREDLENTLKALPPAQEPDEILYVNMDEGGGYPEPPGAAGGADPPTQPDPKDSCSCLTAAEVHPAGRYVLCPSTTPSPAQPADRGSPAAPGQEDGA
# Summary of the method: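 Compound inhibition of AXL autophosphorylation was read by 4G10 immunoblot after anti-AXL immunoprecipitation from lysates. Cells: NIH3T3 lines stably carrying retroviral wild-type human AXL, treated 2 h with compound dilution series.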
melting point [°C],IC50 [1] [µM],SMILES
222 to 224,> 3,"COc1cc(S(=O)(=O)Nc2ccc(Oc3ccnc4cc(OC)c(OC)cc34)cc2)ccc1F [Example A116, N-[4-(6,7-Dimethoxy-quinolin-4-yloxy)-phenyl]-4-fluoro-3-methoxy-benzenesulfonamide]"
232 to 234,> 10,"COc1cc2nccc(Oc3ccc(NS(=O)(=O)c4ccc(Br)c(Cl)c4)cc3)c2cc1OC [Example A117, 4-Bromo-3-chloro-N-[4-(6,7-dimethoxy-quinolin-4-yloxy)-phenyl]-benzenesulfonamide]"
260 to 263,0.54,"COc1cc2nccc(Oc3ccc(NS(=O)(=O)c4cc(F)ccc4F)cc3)c2cc1OC [Example A118, N-[4-(6,7-Dimethoxy-quinolin-4-yloxy)-phenyl]-2,5-difluoro-benzenesulfonamide]"
211 to 212,> 3,"COc1cc2nccc(Oc3ccc(NS(=O)(=O)c4ccccc4OC(F)(F)F)cc3OC)c2cc1OC [Example A119, N-[4-(6,7-Dimethoxy-quinolin-4-yloxy)-3-methoxy-phenyl]-2-trifluoromethoxy-benzenesulfonamide]"
106 to 107,> 10,"COc1cc2nccc(Oc3ccc(NS(=O)(=O)c4cccc(Oc5ccccc5)c4)cc3OC)c2cc1OC [Example A120, N-[4-(6,7-Dimethoxy-quinolin-4-yloxy)-3-methoxy-phenyl]-3-phenoxy-benzenesulfonamide]"
109 to 110,> 10,"COc1cc(S(=O)(=O)Nc2ccc(Oc3ccnc4cc(OC)c(OC)cc34)c(OC)c2)ccc1F [Example A121, N-[4-(6,7-Dimethoxy-quinolin-4-yloxy)-3-methoxy-phenyl]-4-fluoro-3-methoxy-benzenesulfonamide]"
110 to 113,> 10,"COc1cc2nccc(Oc3ccc(NS(=O)(=O)c4ccc(Br)c(Cl)c4)cc3OC)c2cc1OC [Example A122, 4-Bromo-3-chloro-N-[4-(6,7-dimethoxy-quinolin-4-yloxy)-3-methoxy-phenyl]-benzenesulfonamide]"
144 to 147,> 3,"COc1cc2nccc(Oc3ccc(NS(=O)(=O)c4ccc(Br)c(Cl)c4)cc3F)c2cc1OC [Example A124, 4-Bromo-3-chloro-N-[4-(6,7-dimethoxy-quinolin-4-yloxy)-3-fluoro-phenyl]-benzenesulfonamide]"
203 to 204,0.13,"COc1cc2nccc(Oc3ccc(NS(=O)(=O)c4ccccc4OC(F)(F)F)cc3F)c2cc1OC [Example A126, N-[4-(6,7-Dimethoxy-quinolin-4-yloxy)-3-fluoro-phenyl]-2-trifluoromethoxy-benzenesulfonamide]"
206 to 208,> 3,"COc1cc2nccc(Oc3ccc(NS(=O)(=O)c4cc(Cl)cc(Cl)c4OC)cc3C)c2cc1OC [Example A127, 3,5-Dichloro-N-[4-(6,7-dimethoxy-quinolin-4-yloxy)-3-methyl-phenyl]-2-methoxy-benzenesulfonamide]"
207 to 209,> 3,"COc1cc2nccc(Oc3ccc(NS(=O)(=O)c4ccccc4OC(F)(F)F)cc3C)c2cc1OC [Example A129, N-[4-(6,7-Dimethoxy-quinolin-4-yloxy)-3-methyl-phenyl]-2-trifluoromethoxy-benzenesulfonamide]"
233 to 235,> 10,"COc1cc2nccc(Oc3ccc(NS(=O)(=O)c4ccc(OC)c5ccccc45)cc3C)c2cc1OC [Example A130, 4-Methoxy-naphthalene-1-sulfonic acid [4-(6,7-dimethoxy-quinolin-4-yloxy)-3-methyl-phenyl]-amide]"
239 to 240,1.68,"COc1cc2nccc(Oc3ccc(NS(=O)(=O)c4cc(F)ccc4F)cc3C)c2cc1OC [Example A131, N-[4-(6,7-Dimethoxy-quinolin-4-yloxy)-3-methyl-phenyl]-2,5-difluoro-benzenesulfonamide]"
188 to 190,> 10,"COc1cc2nccc(Oc3ccc(NS(=O)(=O)c4cccc(-c5ncccn5)c4)cc3C)c2cc1OC [Example A132, N-[4-(6,7-Dimethoxy-quinolin-4-yloxy)-3-methyl-phenyl]-3-pyrimidin-2-yl-benzenesulfonamide]"
240 to 242,> 10,"COc1cc2nccc(Oc3ccc(NS(=O)(=O)c4ccc(OC)c5ccccc45)cc3)c2cc1OC [Example A133, 4-Methoxy-naphthalene-1-sulfonic acid [4-(6,7-dimethoxy-quinolin-4-yloxy)-phenyl]-amide]"
218 to 220,> 1,"COc1cc2nccc(Oc3ccc(NS(=O)(=O)c4ccc(Cl)cc4F)cc3)c2cc1OC [Example A134, 4-Chloro-N-[4-(6,7-dimethoxy-quinolin-4-yloxy)-phenyl]-2-fluoro-benzenesulfonamide]"
145 to 147,0.82,"COc1cc2nccc(Oc3ccc(NS(=O)(=O)c4ccc(OC)c5ccccc45)cc3F)c2cc1OC [Example A135, 4-Methoxy-naphthalene-1-sulfonic acid [4-(6,7-dimethoxy-quinolin-4-yloxy)-3-fluoro-phenyl]-amide]"
199 to 201,> 10,"COc1cc2nccc(Oc3ccc(NS(=O)(=O)c4ccc(-c5ccccc5)cc4)c(F)c3)c2cc1OC [Example A136, Biphenyl-4-sulfonic acid [4-(6,7-dimethoxy-quinolin-4-yloxy)-2-fluoro-phenyl]-amide]"
195 to 197,> 10,"COc1cc2nccc(Oc3ccc(NS(=O)(=O)c4ccc5c(c4)CC(=O)N5C)c(F)c3)c2cc1OC [Example A137, 1-Methyl-2-oxo-2,3-dihydro-1H-indole-5-sulfonic acid [4-(6,7-dimethoxy-quinolin-4-yloxy)-2-fluoro-phenyl]-amide]"
108 to 110,> 10,"COc1cc2nccc(Oc3ccc(NS(=O)(=O)c4cccc(-c5ccccc5)c4)cc3OC)c2cc1OC [Example A138, Biphenyl-3-sulfonic acid [4-(6,7-dimethoxy-quinolin-4-yloxy)-3-methoxy-phenyl]-amide]"
222 to 224,2.2,"COc1cc2nccc(Oc3ccc(NS(=O)(=O)c4cc(F)ccc4F)cc3OC)c2cc1OC [Example A139, N-[4-(6,7-Dimethoxy-quinolin-4-yloxy)-3-methoxy-phenyl]-2,5-difluoro-benzenesulfonamide]"
124 to 126,> 10,"COc1cc2nccc(Oc3ccc(NS(=O)(=O)c4cccc5ccccc45)cc3OC)c2cc1OC [Example A140, Naphthalene-1-sulfonic acid [4-(6,7-dimethoxy-quinolin-4-yloxy)-3-methoxy-phenyl]-amide]"
128 to 131,> 10,"COc1cc2nccc(Oc3ccc(NS(=O)(=O)c4ccc(-c5ccccc5)cc4)cc3OC)c2cc1OC [Example A142, Biphenyl-4-sulfonic acid [4-(6,7-dimethoxy-quinolin-4-yloxy)-3-methoxy-phenyl]-amide]"
135 to 137,> 10,"COc1cc2nccc(Oc3ccc(NS(=O)(=O)c4cccc(-c5ncccn5)c4)cc3OC)c2cc1OC [Example A143, N-[4-(6,7-Dimethoxy-quinolin-4-yloxy)-3-methoxy-phenyl]-3-pyrimidin-2-yl-benzenesulfonamide]"
144 to 146,> 10,"COc1cc2nccc(Oc3ccc(NS(=O)(=O)c4csc5ccccc45)cc3OC)c2cc1OC [Example A144, Benzo[b]thiophene-3-sulfonic acid [4-(6,7-dimethoxy-quinolin-4-yloxy)-3-methoxy-phenyl]-amide]"
150 to 152,> 10,"COc1cc2nccc(Oc3ccc(NS(=O)(=O)c4ccc5c(c4)CC(=O)N5C)cc3OC)c2cc1OC [Example A145, 1-Methyl-2-oxo-2,3-dihydro-1H-indole-5-sulfonic acid [4-(6,7-dimethoxy-quinolin-4-yloxy)-3-methoxy-phenyl]-amide]"
226 to 228,0.89,"COc1cc2nccc(Oc3ccc(NS(=O)(=O)c4ccc(Br)cc4OC(F)(F)F)cc3F)c2cc1OC [Example A146, 4-Bromo-N-[4-(6,7-dimethoxy-quinolin-4-yloxy)-3-fluoro-phenyl]-2-trifluoromethoxy-benzenesulfonamide]"
